{"source": "patent US11160784B1", "about": "“Treatment of brain metastases using organonitro compound combination therapy” (EpicentRx, Inc., priority 2015, dated 2021)", "key": {"SCCVII tumor": {"system": "SCCVII tumor", "experiment": "Impact of time between administration of ABDNAZ and radiation therapy on tumor growth delay", "type": "in vivo, mice", "conditions": "ABDNAZ 15 mg/kg IP single dose at -24 h, -2 h, concurrent, +2 h or +24 h; single local 7 Gy; FIG. 1", "procedure": "The impact of the time interval between administration of ABDNAZ and radiation therapy on tumor growth delay was evaluated in mice having a SCCVII tumor. Experimental procedures and results are described below.\nMice having a SCCVII tumor were treated with radiation therapy and ABDNAZ, where the length of time between administration of radiation therapy and ABDNAZ was varied. Radiation therapy was administered as a single local dose of 7 Gy of radiation. ABDNAZ was dosed in 5 groups of mice at 15 mg/kg IP as a single dose at one of the following time points: 24 hours prior to radiation therapy, 2 hours prior to radiation therapy, concurrent with radiation therapy, 2 hours after radiation therapy, or 24 hours after radiation therapy."}, "brain metastases [1]": {"system": "brain metastases", "experiment": "Treatment of two human patients suffering from brain metastases with ABDNAZ in combination with whole brain radiation therapy", "type": "in vivo", "procedure": "Two human patients suffering from brain metastases were treated according to the protocol described in Part I below using ABDNAZ in combination with whole brain radiation therapy.\n(§1) ABDNAZ was administered intravenously in a formulation containing ABDNAZ, polyethylene glycol having a number-average molecular weight of 400 g/mol (PEG-400), water for injection, and NN-dimethylacetamide. A single dosage of ABDNAZ was 5 mg/m^2. During radiation therapy, (i) subjects were treated in the supine position, (ii) adequate immobilization and reproducibility of position was ensured using thermoplastic mask, (iii) the target volume included the whole brain, per the treating radiation oncologist, (iv) the lens of the eye was excluded from the beam using shielding or by beam collimation, (v) the dose of radiation is specified at central axis at mid-plane, (vi) whole brain radiotherapy was delivered with a daily fraction size of 3.0 Gy per fraction given 5 days a week for a total dose of 30 Gy, and (vii) radiation therapy was delivered using photon beam energies of 6 MV and an opposed lateral technique, where all fields are treated during each treatment session."}, "brain metastases [2]": {"system": "brain metastases", "experiment": "Treatment of thirteen additional human patients suffering from brain metastases with ABDNAZ in combination with whole brain radiation therapy", "type": "in vivo", "conditions": "ABDNAZ 1.25 to 8.4 mg/m^2 IV + WBRT 30 Gy", "procedure": "Thirteen human patients suffering from brain metastases were treated according to the protocol described in Part I below using ABDNAZ in combination with whole brain radiation therapy.\nas §1, with “intravenously at a dosage” for “intravenously”, “the range” for “a formulation containing ABDNAZ, polyethylene glycol having a number-average molecular weight”, “1.25 mg/m^2 to 8.4” for “400 g/mol (PEG-400), water for injection, and NN-dimethylacetamide. A single dosage of ABDNAZ was 5”"}, "[3]": {"conditions": "first patient, four weeks after completion of ABDNAZ + WBRT"}}}
{"smiles": "O=C(CBr)N1CC([N+](=O)[O-])([N+](=O)[O-])C1", "note": "[ABDNAZ]", "values": [{"measurement": "tumor growth delay versus time interval between ABDNAZ and radiation therapy", "setting": "SCCVII tumor", "value": "Maximum tumor growth delay occurred when ABDNAZ was administered minutes before or concomitant with radiation therapy"}, {"measurement": "k^trans by dynamic contrast-enhanced brain MRI", "setting": "brain metastases [1]; first patient (melanoma brain metastases), 24 hours after first dose of ABDNAZ 5 mg/m^2 IV", "value": "decrease in k^trans in 4 of 5 lesions"}, {"measurement": "size of new lesion discovered", "setting": "brain metastases [1]; first patient, 4 months after completion of ABDNAZ + WBRT, possibly seeding from systemic disease", "value": 5, "unit": "mm"}, {"measurement": "tolerability", "setting": "brain metastases [1]; first patient, ABDNAZ 5 mg/m^2 IV + WBRT 30 Gy", "value": "well-tolerated with mild, transient infusion site pain, and without any signs of systemic or neurologic toxicity"}, {"measurement": "visual symptoms", "setting": "brain metastases [1]; first patient, by the end of treatment with ABDNAZ + WBRT", "value": "improved visual symptoms with near resolution of visual field-deficit"}, {"measurement": "edema associated with lesions", "setting": "brain metastases [1]; first patient, four months after completion of ABDNAZ + WBRT", "value": "decrease in associated edema of all lesions"}, {"measurement": "physical function, Barthel ADL index", "setting": "brain metastases [1]; [3]", "value": "unchanged from baseline"}, {"measurement": "size of brain lesions by contrasted brain MRI", "setting": "brain metastases [1]; [3]", "value": "decrease in the size of the largest right and left occipital masses"}, {"measurement": "visual symptoms", "setting": "brain metastases [1]; first patient, within 48 hours of receiving the first dose of radiation therapy, ABDNAZ 5 mg/m^2 IV + WBRT", "value": "began to improve"}, {"measurement": "number of sub-centimeter metastases with complete disappearance", "setting": "brain metastases [1]; second patient, 3 months after end of ABDNAZ + WBRT", "value": 3}, {"measurement": "lesion response on serial re-imaging", "setting": "brain metastases [1]; second patient, at least 18 brain metastases at baseline, ABDNAZ + WBRT", "value": "response in all 18 visualized lesions"}, {"measurement": "infusion site pain", "setting": "brain metastases [1]; second patient, during treatment", "value": "no significant infusion site pain"}, {"measurement": "k^trans by DCE-MRI", "setting": "brain metastases [1]; second patient, largest evaluable lesion, 24 hours after first administration of ABDNAZ", "value": "slight reduction in k^trans"}, {"measurement": "physical function, Barthel ADL index", "setting": "brain metastases [1]; second patient, one month after end of ABDNAZ + WBRT", "value": "unchanged from baseline"}, {"measurement": "adverse events", "setting": "brain metastases [2]", "value": "No adverse events were observed"}, {"measurement": "patients with decrease of at least 30% in sum of longest diameters of target lesions and absolute decrease of at least 5 mm in at least one target lesion", "setting": "brain metastases [2]", "value": "Approximately 50%"}]}
